Entries after “also recorded” stand apart in the source; their conditions may differ.
Legend:
[1] = drug release and reduction responsibility test (dialysis, with or without 10 mM glutathione); assay type: physicochemical
Experimental: Using B-2, B-2-5, O-C3M, B-2-3, TS-P4C2 or L-PZ4C2 as a cationic lipid, an O/W type emulsion having a composition of cationic lipid:DOPC:Cholesterol=3:4:3 (molar ratio) was prepared. In this preparation, DSG-PEG2000 (9 mol %) was used as a PEG lipid. As a drug model molecule, 4-Methylumbelliferon Palmitate (30 mol %) was used and fluorescent probe DiD (1 mol %) was used for calibration by particles concentration.
An ethanol solution containing 1000 nmol as a total of cationic lipid, DOPE, and Cholesterol was prepared, and PEG lipid, drug model molecule and fluorescent probe were added in the above-mentioned amounts. Ethanol was added to make the total amount 400 μL, and the mixture was stood at 37° C. for 15 min. A similarly heated malic acid buffer (20 mM, pH 3.0, 30 mM NaCl) (400 μL) was mixed within 3 sec under vortex. PBS (NISSUI) (3200 μL) was immediately added thereto. The mixture was subjected to ultrafiltration using Amicon Ultra (Millipore) The centrifugation conditions were 1000 g, 25° C. […]
400 μL of the prepared emulsion was placed in a dialysis membrane (Spectrum Lab) having a molecular weight cutoff of 1000 and dialyzed against 40 mL of PBS at 37° C. […] After penetration and stirring at 60° C. for 30 min, the amounts of 4MU and DiD in the solution were quantified by fluorescence measurement (4MU: Ex385, Em450 DiD: Ex645, Em665). […]

[2] = particle size distribution by dynamic light scattering (Zetasizer Nano ZS); assay type: physicochemical
Experimental: The particle size distribution of the prepared emulsion was measured by dynamic light scattering using Zetasizer Nano ZS. The measurement conditions were 1 mM emulsion (40 μL) at 25° C. As a result, in all compositions, the volume median diameter was not more than 100 nm and, when a linear head was used (i.e., the formula (I) wherein X^a and X^b are each X^1), the particle size was not more than 50 nm. The drug recovery rate was not less than 85% (FIG. 1, Table 2).
EPC and Cholesterol were mixed to achieve 1000 nmol and a PEG lipid was added. Chloroform in an amount equal to that of the lipid ethanol solution was added and the mixture was dried under a nitrogen blow. PBS (1 mL) was added to the lipid membrane after drying and the mixture was stood for 10 min and sonicated by a bath-type sonicator for 3 min to give a particle suspension. The particle size distribution of the prepared particles was measured by dynamic light scattering in the same manner as in Example 1.
The particle size distribution of the produced emulsion solution was measured by dynamic light scattering similarly to Example 1. As a result, when DOPC was used, the volume median diameter was near 40 nm irrespective of pH.
An ethanol solution containing 500 nmol as a total of cationic B-2, DOPE, and Cholesterol was prepared, and a PEG lipid was added in the above-mentioned amount. Ethanol was added to make the total amount 200 μL, and the mixture was stood at ice temperature for 15 min. A similarly ice-cooled malic acid buffer (20 mM, pH 3.0, 0-1000 mM NaCl) (200 μL) was mixed within 3 sec under vortex. PBS (NISSUI) (3600 μL) was immediately added thereto. The mixture was subjected to ultrafiltration using Amicon Ultra (Millipore). The centrifugation conditions were 1000 G, 25° C. An operation including addition of 3200 μL of PBS after centrifugation for 10 min was repeated twice and the sample was concentrated to about 500 μL. The concentrate was diluted with PBS to a mass of 1000 mg to give a 0.5 mM (lipid concentration) emulsion. The particle size distribution of the produced emulsion solution was measured by dynamic light scattering similarly to Example 1.
The volume median diameter and the surface potential were measured using the dynamic light scattering (Zetasizer Nano; Malvern) in the same manner as in Example 1.
The average particle size of the produced particles was measured in the same manner as in Example 1 and the results are shown in Table 7.

[3] = DexPal-carrying rate by high performance liquid chromatography; assay type: physicochemical; conditions: DexPal-carrying LNP
Experimental: 1 mM DexPal-carrying LNP (50 μL) was mixed with phosphate buffer (pH 7.4) (50 μL), and 50 μL thereof was mixed with MeOH (50 μL). 0.1% Trifluoroacetic acid/acetonitrile (400 μL) was added, and DexPal was detected by high performance liquid chromatography (column: InertSustain C18, 5 μm, 4.6 mm×250 mm (GL Sciences Inc.), mobile phase: MeOH:0.1% trifluoroacetic acid/acetonitrile=70:30, flow rate: 1 mL/min, detector: 240 nm, injection volume: 200 μL). As the analytical curve of Dex-Pal, 0.5 mM, 0.25 mM, 0.125 mM, 0.0625 mM, DexPalethanol solution (50 μL) was mixed with MeOH (50 μL), and 50 μL thereof was mixed with phosphate buffer (pH 7.4) (50 μL). 0.1% Trifluoroacetic acid/acetonitrile (400 μL) was added, and DexPal was detected by a method similar to that for DexPal-carrying LNP. The peak area and concentration were plotted, and the DexPal concentration and carrying rate in the DexPal-carrying LNP were calculated.

[4] = organ accumulation of particles in 4T1 tumor-bearing mouse (IVIS); assay type: in vivo, BALB/c mouse; conditions: intravenous, lipid 800 nmol, 24 hr after administration, DiR fluorescence
Experimental: As cationic lipid, B-2 and B-2-5 were used. As conventional lipid, DODAP and EPC were used. The preparation methods of the O/W type emulsion and particle suspensions (DODAP, EPC) followed the methods described in Example 1 and Comparative Example 1. To visualize pharmacokinetics of the oil droplets constituting the O/W type emulsion or particle suspension (DODAP, EPC), fluorescent dye DiR was added by 0.2 mol % of the lipid. The particle concentration was adjusted to 4 mM as a lipid concentration.
As a tumor-bearing mouse, 4T1 cell (mouse breast cancer) was used. 1×10^6 4T1 cells were subcutaneously transplanted to the right flank of BALB/c mouse (♀, 4-week-old). At 7 days from the transplantation, 200 μL (lipid 800 nmol) of the O/W type emulsion or particle suspension (DODAP, EPC) containing fluorescence-modified particles was intravenously administered. At 24 hr after administration, […] was performed, and the spleen, liver and tumor were collected and image was obtained by IVIS. The average fluorescence intensity was calculated using Living Image Software.
As a cationic lipid, B-2 was used. An O/W type emulsion was prepared according to Example 3. In this preparation, 4-Methylumbelliferon (10 mol %) was used as a model drug and DMG-PEG2000 (10 mol %) and DSG-PEG2000 (2.5 mol %) were used as PEG lipids, and a 4.0 mM (based on lipid concentration) emulsion was prepared. To visualize pharmacokinetics of the oil droplets constituting the O/W type emulsion or particle suspension (DODAP, EPC), fluorescent dye DiR was added by 0.2 mol % of the lipid. As the salt (NaCl) concentration during preparation of particles, 30 mM, 150 mM, 750 mM were selected and taken as “Small”, “Medium”, “Large”, respectively. The particle concentration was adjusted to 4 mM as a lipid concentration.
The organ distribution in a tumor-bearing mouse was evaluated in the same manner as in Experimental Example 1. As a result, accumulation in the spleen, liver decreased as the particle size became smaller.

[5] = retentivity in blood test, 4 MU-Pal versus 4 MU-CHEMS; assay type: in vivo; conditions: B-2:DOPC:Chol emulsion, tail vein, ICR mouse; comparison with 4 MU-Pal
Experimental: To a lipid mixture of B-2:DOPC:Chol=3:4:3 were added DSG-PEG2000 (9 mol %) and 30 mol % 4 MU-Pal, and 1 mol % fluorescent dye DiD was added to give an emulsion by a method similar to that in Example 1.
To a lipid mixture of B-2:DOPC:Chol:4 MU-CHEMS=3:4:1.5:1.5 was added DSG-PEG2000 (15 mol %), fluorescent dye DiD (1 mol %) was further added, and an emulsion was prepared by a method similar to that in Example 1.
The concentration of the particle suspension was set to 4 mM as a lipid concentration (B-2+DOPC+Chol). The suspension (250 μL) was administered to ICR mouse J 4-week-old from the tail vein. Blood (25 μL) was collected at each time point and mixed with pH 10.4 borate buffer (275 μL), ethanol (150 μL), 10% SDS (50 μL). 4 MU-Pal or 4 MU-CHEMS was hydrolyzed by incubation at 60° C. for 30 min. The fluorescence of the resulting 4-methylumbelliferone, and DiD modified by particles was each measured by a plate reader and the residual amount in the blood was examined from the analytical curve.

[6] = DexPal-carrying particles (lipid, DOPC, Chol, DMG-PEG2000, DSG-PEG2000, DexPal)
[7] = O/W emulsion cationic lipid:DOPE:Cholesterol=3:4:3, 4-Methylumbelliferon 10 mol %, DMG-PEG2000 10 mol %, DSG-PEG2000 2.5 mol %
[8] = O/W emulsion cationic lipid:DOPE:Cholesterol=3:4:3, 4-Methylumbelliferon 10 mol %, DMG-PEG2000 10 mol %, DSG-PEG2000 2.5 mol %, 1 mM, 25° C.

| SMILES | PdI ([2]; DexPal-carrying particles) | volume median diameter [2, 6] | carrying rate [3] | transfer into tumor [4] | PdI [2, 7] | volume median diameter [2, 8] | also measured |
| --- | --- | --- | --- | --- | --- | --- | --- |
| CCCCCCCC/C=C\CCCCCCCC(=O)OCC(CN(C)C)OC(=O)CCCCCCC/C=C\CCCCCCCC (stereo not drawn) [DODAP] | 0.15 ± 0.01 | 39.1 ± 2.2 nm·days | 89.6 ± 2.9% | transfer well into tumor |  |  | release of drug model substance ([1]; conventional lipid particle suspension, 24 hr, under any conditions (reduction or nonreduction)): hardly released; responsiveness under reduction ([1]; conventional lipid:DOPC:Cholesterol=3:4:3 particle suspension, 4-Methylumbelliferon Palmitate 30 mol %): not found; PdI ([2]; particle suspension of conventional lipid (DODAP:DOPE:Cholesterol=3:4:3 or EPC:Cholesterol=3:2)): 0.418; volume median diameter ([2]; particle suspension of conventional lipid (DODAP:DOPE:Cholesterol=3:4:3 or EPC:Cholesterol=3:2), 4-Methylumbelliferon 10 mol %): 34.8 nm |
| Cc1cc(=O)oc2cc(OC(=O)CCC(=O)OC3CCC4(C)C(=CCC5C4CCC4(C)C(C(C)CCCC(C)C)CCC54)C3)ccc12 (stereo not drawn) [4 MU-CHEMS, 4-methylumbelliferone cholesterol hemisuccinate] |  |  |  |  |  |  | retentivity in blood [5]: stayed longer in the blood than 4 MU-Pal |
| Cc1c(C)c2c(c(C)c1OC(=O)CCC(=O)OCCCN(C)CCSSCCN(C)CCCOC(=O)CCC(=O)Oc1c(C)c(C)c3c(c1C)CCC(C)(CCCC(C)CCCC(C)CCCC(C)C)O3)CCC(C)(CCCC(C)CCCC(C)CCCC(C)C)O2 (stereo not drawn) [B-2-5] |  |  |  |  | 0.164 | 41.2 nm | accumulation in the liver [4]: superior in accumulation in the liver; also recorded: found |
| CCCCC/C=C\C/C=C\CCCCCCCC(=O)OCCN1CCN(CCSSCCN2CCN(CCOC(=O)CCCCCCC/C=C\C/C=C\CCCCC)CC2)CC1 [L-PZ4C2] |  |  |  |  | 0.092 | 75.8 nm |  |
| Cc1c(C)c2c(c(C)c1OC(=O)CCC(=O)OCCC1CCN(CCSSCCN3CCC(CCOC(=O)CCC(=O)Oc4c(C)c(C)c5c(c4C)CCC(C)(CCCC(C)CCCC(C)CCCC(C)C)O5)CC3)CC1)CCC(C)(CCCC(C)CCCC(C)CCCC(C)C)O2 (stereo not drawn) [TS-P4C2] |  |  |  |  | 0.063 | 87.9 nm |  |
| CCCCCCCCCCCCCC(=O)OCCCN(C)CCSSCCN(C)CCCOC(=O)CCCCCCCCCCCCC [B-2] | 0.15 ± 0.01 | 41.4 ± 0.7 nm·days | 90.6 ± 5.2% | transfer well into tumor | 0.465 | 37.6 nm | volume median diameter ([2]; B-2:DOPE:Cholesterol=3:4:3, 15 mol % DMG-PEG2000, NaCl concentration of 60 mM or below at preparation): 30-50 nm; volume median diameter ([2]; B-2:DOPE:Cholesterol=3:4:3, 15 mol % DMG-PEG2000, salt concentration of 500 mM or below at preparation): ≤ 100 nm |

Reference: patent US11395798B2, “O/W type emulsion” (NOF CORPORATION, priority 2015, dated 2022)
